Assay results reported in US20240423207A1, “PICOLINAMIDE COMPOUNDS WITH FUNGICIDAL ACTIVITY” (CORTEVA AGRISCIENCE LLC, priority 2014, published 2024).
Where two headings read alike, the source gives them in different places.

Legend:
Type in all cases: in vivo
Rhyncosporium secalis = assay: Barley Scald (RHYNSE) fungicidal activity on barley seedlings; conditions: Hordeum vulgare, 24 h, 1 Day Protectant, read-out: RHYNSE 1 DP disease control
Procedure: Technical grades of materials were dissolved in acetone, which were then mixed with nine volumes of water (H2O) containing 110 ppm Triton X-100. The fungicide solutions were applied onto wheat seedlings using an automated booth sprayer to run-off. All sprayed plants were allowed to air dry prior to further handling. All fungicides were evaluated using the aforementioned method for their activity vs. all target diseases, unless stated otherwise. Wheat leaf blotch and brown rust activity were also evaluated using track spray applications, in which case the fungicides were formulated as EC formulations, containing 0.1% Trycol 5941 in the spray solutions. Wheat plants (variety Yuma) were grown from seed in a greenhouse in 50% mineral soil/50% soil-less Metro mix until the first leaf was fully emerged, with 7-10 seedlings per pot. These plants were inoculated with an aqueous spore suspension of Septoria tritici either prior to or after fungicide treatments. After inoculation the plants were kept in 100% relative humidity (one day in a dark dew chamber followed by two to three days in a lighted dew chamber at 20° C.) to permit spores to germinate and infect the leaf. The plants were then transferred to a greenhouse set at 20° C. for disease to develop. When disease symptoms were fully expressed on the 1st leaves of untreated plants, infection levels were assessed on a scale of 0 to 100 percent disease severity. Percent disease control was calculated using the ratio of disease severity on treated plants relative to untreated plants. Example G: Evaluation of Fungicidal Activity: Barley Scald (Rhyncosporium secalis; Bayer code […]) Barley seedlings (variety Harrington) were propagated in soil-less Metro mix, with each pot having 8 to 12 plants, and used in the test when the first leaf was fully emerged. Test plants were inoculated by an aqueous spore suspension of Rhyncosporium secalis 24 h after fungicide treatments. After inoculation the plants were kept in a dew room at 20° C. with 100% relative humidity for 48 h. The plants were then transferred to a greenhouse set at 20° C. for disease to develop. Fungicide formulation, application and disease assessment on the sprayed leaves followed the procedures as described in the Example A.

Leptosphaeria nodorum = assay: Wheat Glume Blotch (LEPTNO) fungicidal activity on wheat seedlings; conditions: Parastagonospora nodorum, 24 h, 1 Day Protectant, read-out: LEPTNO 1 DP disease control
Procedure: Technical grades of materials were dissolved in acetone, which were then mixed with nine volumes of water (H2O) containing 110 ppm Triton X-100. The fungicide solutions were applied onto wheat seedlings using an automated booth sprayer to run-off. All sprayed plants were allowed to air dry prior to further handling. All fungicides were evaluated using the aforementioned method for their activity vs. all target diseases, unless stated otherwise. Wheat leaf blotch and brown rust activity were also evaluated using track spray applications, in which case the fungicides were formulated as EC formulations, containing 0.1% Trycol 5941 in the spray solutions. Wheat plants (variety Yuma) were grown from seed in a greenhouse in 50% mineral soil/50% soil-less Metro mix until the first leaf was fully emerged, with 7-10 seedlings per pot. These plants were inoculated with an aqueous spore suspension of Septoria tritici either prior to or after fungicide treatments. After inoculation the plants were kept in 100% relative humidity (one day in a dark dew chamber followed by two to three days in a lighted dew chamber at 20° C.) to permit spores to germinate and infect the leaf. The plants were then transferred to a greenhouse set at 20° C. for disease to develop. When disease symptoms were fully expressed on the 1st leaves of untreated plants, infection levels were assessed on a scale of 0 to 100 percent disease severity. Percent disease control was calculated using the ratio of disease severity on treated plants relative to untreated plants. Example C: Evaluation of Fungicidal Activity: Wheat Glume Blotch (Leptosphaeria nodorum; Bayer code […]) Wheat plants (variety Yuma) were grown from seed in a greenhouse in 50% mineral soil/50% soil-less Metro mix until the first leaf was fully emerged, with 7-10 seedlings per pot. These plants were inoculated with an aqueous spore suspension of Leptosphaeria nodorum 24 h after fungicide treatments. After inoculation the plants were kept in 100% relative humidity (one day in a dark dew chamber followed by two days in a lighted dew chamber at 20° C.) to permit spores to germinate and infect the leaf. The plants were then transferred to a greenhouse set at 20° C. for disease to develop. Fungicide formulation, application and disease assessment followed the procedures as described in the Example A.

[1] = test system: Mycosphaerella graminicola; Anamorph: Septoria tritici; assay: Leaf Blotch of Wheat (SEPTTR) fungicidal activity on wheat seedlings; conditions: Zymoseptoria tritici, Low Volume, 121.5 g/H
In short: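 Compounds in acetone were diluted with nine volumes of water containing 110 ppm Triton X-100, or as EC formulations with 0.1% Trycol 5941 for track spray. They were sprayed on first-leaf Yuma wheat seedlings inoculated with S. tritici before or after treatment. Plants spent 1 day dark and 2–3 days lit at 100% RH, 20 °C. Severity (0–100%) was scored once untreated plants were fully diseased; control was computed relative to untreated plants.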

[2] = test system: Magnaporthe grisea; Anamorph: Pyricularia oryzae; assay: whole plant or invertebrate; conditions: 24 h, read-out: PYRIOR 1 DP disease control
[3] = 24 h, 1 Day Protectant, read-out: SEPTTR 1DP disease control
[4] = 72 h, 3 Day Curative, read-out: SEPTTR 3DC disease control

COc1ccnc(C(=O)N[C@@H](C)C(=O)O[C@@H](C)C(c2ccccc2)c2ccccc2)c1OC(C)=O [Cmpd 139, (S)-(S)-1,1-diphenylpropan-2-yl 2-(3-acetoxy-4-methoxypicolinamido)propanoate]
> 80%: pest or weed control at 100 ppm (Rhyncosporium secalis) | pest or weed control at 100 ppm (Leptosphaeria nodorum) | pest or weed control at 121.5 g/ha [1, 3] | pest or weed control at 121.5 g/ha [1, 4] | pest or weed control at 100 ppm [2]

COc1ccnc(C(=O)N[C@@H](C)C(=O)O[C@@H](C)C(c2ccccc2)c2ccccc2)c1OC(=O)C(C)C [Cmpd 140]
> 80%: pest or weed control at 100 ppm (Leptosphaeria nodorum) | pest or weed control at 121.5 g/ha [1, 3] | pest or weed control at 121.5 g/ha [1, 4] | pest or weed control at 100 ppm [2]

COc1ccnc(C(=O)N[C@@H](C)C(=O)O[C@@H](C)C(c2ccccc2)c2ccccc2)c1OCOC(C)=O [Cmpd 141, (S)-(S)-1,1-diphenylpropan-2-yl 2-(3-(acetoxymethoxy)-4-methoxypicolinamido)propanoate]
> 80%: pest or weed control at 100 ppm (Rhyncosporium secalis) | pest or weed control at 100 ppm (Leptosphaeria nodorum) | pest or weed control at 121.5 g/ha [1, 3] | pest or weed control at 121.5 g/ha [1, 4] | pest or weed control at 100 ppm [2]

COc1ccnc(C(=O)N[C@@H](C)C(=O)O[C@@H](C)C(c2ccccc2)c2ccccc2)c1OCOC(=O)C(C)C [Cmpd 142, (S)-(S)-1,1-diphenylpropan-2-yl 2-(3-((isobutyryloxy)methoxy)-4-methoxypicolinamido)propanoate]
> 80%: pest or weed control at 100 ppm (Rhyncosporium secalis) | pest or weed control at 100 ppm (Leptosphaeria nodorum) | pest or weed control at 121.5 g/ha [1, 3] | pest or weed control at 121.5 g/ha [1, 4] | pest or weed control at 100 ppm [2]

COc1ccnc(C(=O)N[C@@H](C)C(=O)O[C@@H](C)C(c2ccc(F)cc2)c2ccc(F)cc2)c1OC(C)=O [Cmpd 145]
> 80%: pest or weed control at 100 ppm (Rhyncosporium secalis) | pest or weed control at 100 ppm (Leptosphaeria nodorum) | pest or weed control at 121.5 g/ha [1, 3] | pest or weed control at 121.5 g/ha [1, 4] | pest or weed control at 100 ppm [2]

COc1ccnc(C(=O)N[C@@H](C)C(=O)O[C@@H](C)C(c2ccc(F)cc2)c2ccc(F)cc2)c1OCOC(C)=O [Cmpd 146]
> 80%: pest or weed control at 100 ppm (Rhyncosporium secalis) | pest or weed control at 100 ppm (Leptosphaeria nodorum) | pest or weed control at 121.5 g/ha [1, 3] | pest or weed control at 121.5 g/ha [1, 4] | pest or weed control at 100 ppm [2]

COc1ccnc(C(=O)N[C@@H](C)C(=O)O[C@@H](C)C(c2ccc(F)cc2F)c2ccc(F)cc2F)c1OCOC(C)=O [Cmpd 148]
> 80%: pest or weed control at 100 ppm (Rhyncosporium secalis) | pest or weed control at 100 ppm (Leptosphaeria nodorum) | pest or weed control at 121.5 g/ha [1, 3] | pest or weed control at 121.5 g/ha [1, 4] | pest or weed control at 100 ppm [2]

COc1ccnc(C(=O)N[C@@H](C)C(=O)O[C@@H](C)C(c2ccc(F)cc2F)c2ccc(F)cc2F)c1OC(C)=O [Cmpd 150]
> 80%: pest or weed control at 100 ppm (Rhyncosporium secalis) | pest or weed control at 100 ppm (Leptosphaeria nodorum) | pest or weed control at 121.5 g/ha [1, 3] | pest or weed control at 121.5 g/ha [1, 4] | pest or weed control at 100 ppm [2]

COc1ccnc(C(=O)N[C@@H](C)C(=O)O[C@@H](C)C(c2ccc(Cl)cc2)c2ccc(Cl)cc2)c1OC(C)=O [Cmpd 174]
> 80%: pest or weed control at 100 ppm (Rhyncosporium secalis) | pest or weed control at 100 ppm (Leptosphaeria nodorum) | pest or weed control at 121.5 g/ha [1, 3] | pest or weed control at 121.5 g/ha [1, 4] | pest or weed control at 100 ppm [2]

COc1ccnc(C(=O)N[C@@H](C)C(=O)O[C@@H](C)C(c2ccc(Cl)cc2)c2ccc(Cl)cc2)c1OCOC(C)=O [Cmpd 176]
> 80%: pest or weed control at 100 ppm (Rhyncosporium secalis) | pest or weed control at 100 ppm (Leptosphaeria nodorum) | pest or weed control at 121.5 g/ha [1, 3] | pest or weed control at 121.5 g/ha [1, 4] | pest or weed control at 100 ppm [2]
